Holding throughout (type): biochemical
In one experiment the target is KRAS G12S (Homo sapiens (Human), UniProt P01116+P62937, G12S). Briefly: Ras-Raf (BRAF RBD) disruption / FRET / MOA assay, KRAS G12S. Conditions: Ras-Raf disruption/FRET/MOA assay; class symbols; read-out: KRAS G12S FRET data IC50. A digest of the protocol: (§1)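 Compound-driven ternary complex of nucleotide-loaded Ras with cyclophilin A, disrupting BRAF RBD binding. 10-point 3-fold dilution from 30 μM final, 3 h at 25° C, then anti-His Eu-W1024 (10 nM) and anti-GST allophycocyanin (50 nM) for 1.5 h. IC50 from TR-FRET ratio decrease versus DMSO.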
Chain of KRAS G12S (P01116-2 other isoform, or with tags, fused parts or gaps G12S): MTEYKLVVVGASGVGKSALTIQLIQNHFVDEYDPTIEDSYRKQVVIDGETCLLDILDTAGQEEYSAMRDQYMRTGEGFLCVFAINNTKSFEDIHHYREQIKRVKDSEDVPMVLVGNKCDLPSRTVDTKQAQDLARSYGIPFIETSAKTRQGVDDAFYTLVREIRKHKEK
Chain of KRAS G12S (P62937 whole entry): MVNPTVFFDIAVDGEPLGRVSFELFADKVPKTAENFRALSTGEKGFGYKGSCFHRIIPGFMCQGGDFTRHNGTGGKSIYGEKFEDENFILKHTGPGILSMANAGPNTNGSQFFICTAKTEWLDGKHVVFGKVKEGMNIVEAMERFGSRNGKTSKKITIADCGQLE

For another experiment, the target named is KRAS WT (Homo sapiens (Human), UniProt P01116+P62937). Briefly: Ras-Raf (BRAF RBD) disruption / FRET / MOA assay, KRAS WT. Conditions: read-out: IC50* KRAS WT FRET data. The gist of the method:
as §1

The target of a further experiment is NRAS G12C (Homo sapiens (Human), UniProt P01111+P62937, G12C). Briefly: Ras-Raf (BRAF RBD) disruption / FRET / MOA assay, NRAS G12C. As to conditions: read-out: IC50* NRAS G12C FRET data. A digest of the protocol:
as §1

In a further experiment the target is KRAS G12D (Homo sapiens (Human), UniProt P01116+P62937, G12D). Briefly: Ras-Raf (BRAF RBD) disruption / FRET / MOA assay, KRAS G12D. As to conditions: Ras-Raf disruption/FRET/MOA assay; class symbols; read-out: KRAS G12D FRET data IC50. The gist of the method: as §1
Chain of KRAS G12D (P01116-2 other isoform, or with tags, fused parts or gaps G12D): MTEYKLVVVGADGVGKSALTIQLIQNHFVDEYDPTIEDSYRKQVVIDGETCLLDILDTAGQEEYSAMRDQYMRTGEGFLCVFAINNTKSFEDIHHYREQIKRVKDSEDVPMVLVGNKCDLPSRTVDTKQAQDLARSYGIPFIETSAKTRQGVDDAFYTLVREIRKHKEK
Chain of KRAS G12D (P62937 whole entry): as the sequence (P62937 whole entry) above
A further experiment has as its target NRAS Q61R (Homo sapiens (Human), UniProt P01111+P62937, Q61R). Briefly: Ras-Raf (BRAF RBD) disruption / FRET / MOA assay, NRAS Q61R. As to conditions: NRAS Q61R; Ras-Raf disruption/FRET/MOA assay; read-out: IC50* NRAS Q61R FRET data. The gist of the method:
(§2)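 Compounds (30 μM top final, 10-point 3-fold dilutions) incubated 3 h at 25° C with nucleotide-loaded Ras, cyclophilin A and BRAF RBD. Detection with 10 nM anti-His Eu-W1024 and 50 nM anti-GST allophycocyanin over another 1.5 h. Lowered TR-FRET ratio relative to DMSO wells gives IC50.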

The next experiment addresses K-Ras G13C (Homo sapiens (Human), UniProt P01116+P62937, G13C). Briefly: Ras-Raf (BRAF RBD) disruption / FRET / MOA assay, KRAS G13C. Conditions: KRAS G13C; Ras-Raf disruption/FRET/MOA assay; read-out: IC50* KRAS G13C FRET data. The gist of the method: as §1
Another experiment addresses KRAS Q61H (Homo sapiens (Human), UniProt P01116+P62937, Q61H). Briefly: Ras-Raf (BRAF RBD) disruption / FRET / MOA assay, KRAS Q61H. As to conditions: Ras-Raf disruption/FRET/MOA assay; class symbols; read-out: KRAS Q61H FRET data IC50. The gist of the method:
as §2

The next experiment concerns the target KRAS G13D (Homo sapiens (Human), UniProt P01116+P62937, G13D). Briefly: Ras-Raf (BRAF RBD) disruption / FRET / MOA assay, KRAS G13D. As to conditions: read-out: IC50* KRAS G13D FRET data. A digest of the protocol: as §1
The target in the next experiment is K-Ras G12C (Homo sapiens (Human), UniProt P01116+P62937, G12C). Briefly: Ras-Raf (BRAF RBD) disruption / FRET / MOA assay, KRAS G12C. Conditions: KRAS G12C; Ras-Raf disruption/FRET/MOA assay; read-out: IC50* KRAS G12C FRET data. A digest of the protocol: as §1
Chain of K-Ras G12C (P01116-2 other isoform, or with tags, fused parts or gaps G12C): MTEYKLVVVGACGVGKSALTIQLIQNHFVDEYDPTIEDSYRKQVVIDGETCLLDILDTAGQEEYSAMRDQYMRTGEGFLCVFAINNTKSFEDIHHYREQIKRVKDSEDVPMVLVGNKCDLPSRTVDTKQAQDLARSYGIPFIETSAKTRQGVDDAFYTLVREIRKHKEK
Chain of K-Ras G12C (P62937 whole entry): as the sequence (P62937 whole entry) above
For another experiment, the target named is NRAS Q61K (Homo sapiens (Human), UniProt P01111+P62937, Q61K). Briefly: Ras-Raf (BRAF RBD) disruption / FRET / MOA assay, NRAS Q61K. As to conditions: NRAS Q61K; Ras-Raf disruption/FRET/MOA assay; read-out: IC50* NRAS Q61K FRET data. A digest of the protocol:
as §2

As usually defined, the IC50 is the point on the concentration scale where inhibition reaches its midpoint.

Bounds are passed on as bounds.

Chain of KRAS Q61H (P01116-2 other isoform, or with tags, fused parts or gaps Q61H): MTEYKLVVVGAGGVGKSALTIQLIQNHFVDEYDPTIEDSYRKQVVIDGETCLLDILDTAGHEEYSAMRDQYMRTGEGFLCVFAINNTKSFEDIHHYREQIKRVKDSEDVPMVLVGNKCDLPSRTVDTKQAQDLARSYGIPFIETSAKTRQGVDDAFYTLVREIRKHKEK
Chain of KRAS Q61H (P62937 whole entry): as the sequence (P62937 whole entry) above
Chain of K-Ras G13C (P01116-2 other isoform, or with tags, fused parts or gaps G13C): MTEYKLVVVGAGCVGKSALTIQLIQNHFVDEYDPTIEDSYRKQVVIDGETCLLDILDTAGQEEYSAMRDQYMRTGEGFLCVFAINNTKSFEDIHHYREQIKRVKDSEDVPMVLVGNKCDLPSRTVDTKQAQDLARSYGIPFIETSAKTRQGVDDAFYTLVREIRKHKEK
Chain of K-Ras G13C (P62937 whole entry): as the sequence (P62937 whole entry) above
Chain of NRAS Q61K (P01111 whole entry Q61K): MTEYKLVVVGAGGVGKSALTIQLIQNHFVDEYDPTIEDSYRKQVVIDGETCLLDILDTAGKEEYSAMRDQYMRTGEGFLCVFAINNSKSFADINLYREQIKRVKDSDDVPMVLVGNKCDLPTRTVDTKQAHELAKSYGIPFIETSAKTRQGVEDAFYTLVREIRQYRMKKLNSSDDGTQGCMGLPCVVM
Chain of NRAS Q61K (P62937 whole entry): as the sequence (P62937 whole entry) above
Chain of NRAS Q61R (P01111 whole entry Q61R): as the sequence (P01111 whole entry Q61K) above, with K61R counted along it
Chain of NRAS Q61R (P62937 whole entry): as the sequence (P62937 whole entry) above
Chain of KRAS WT (P01116-2 other isoform, or with tags, fused parts or gaps): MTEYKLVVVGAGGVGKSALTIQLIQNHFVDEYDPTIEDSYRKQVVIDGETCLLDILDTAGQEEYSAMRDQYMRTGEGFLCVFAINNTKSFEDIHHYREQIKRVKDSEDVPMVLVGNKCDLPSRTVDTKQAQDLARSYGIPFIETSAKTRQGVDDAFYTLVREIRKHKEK
Chain of KRAS WT (P62937 whole entry): as the sequence (P62937 whole entry) above
Chain of NRAS G12C (P01111 whole entry G12C): as the sequence (P01111 whole entry Q61K) above, with G12C, K61Q counted along it
Chain of NRAS G12C (P62937 whole entry): as the sequence (P62937 whole entry) above
Chain of KRAS G13D (P01116-2 other isoform, or with tags, fused parts or gaps G13D): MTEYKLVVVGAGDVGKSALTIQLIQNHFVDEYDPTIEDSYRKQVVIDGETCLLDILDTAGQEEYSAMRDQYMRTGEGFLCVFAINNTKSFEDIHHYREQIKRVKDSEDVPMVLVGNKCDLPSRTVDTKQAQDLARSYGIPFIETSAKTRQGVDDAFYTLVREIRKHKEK
Chain of KRAS G13D (P62937 whole entry): as the sequence (P62937 whole entry) above

As to `C=CC(=O)N1CC[C@H](C(=O)N(C)[C@H](C(=O)N[C@H]2Cc3cc(O)cc(c3)-c3ccc4c(c3)c(c(-c3csc(N(C)C)n3)n4CC)CC(C)(C)COC(=O)[C@@H]3CCCN(N3)C2=O)C(C)C)C1` [Example A303], the IC50 was greater than 10 µM on KRAS G12S; greater than 10 µM on KRAS WT; 1 to 10 µM at NRAS G12C; greater than 10 µM on KRAS G12D; greater than 10 µM at NRAS Q61R; greater than 10 µM on K-Ras G13C. The IC50 at KRAS Q61H is 1 to 10 µM; on KRAS G13D, greater than 10 µM; on K-Ras G12C, 1 to 10 µM; on NRAS Q61K it was greater than 10 µM.

In the case of `C=CC(=O)N1CCOC2(CCN(C(=O)N(C)[C@H](C(=O)N[C@H]3C[C@H]4CN(CCO4)c4ccc5c(c4)c(c(-c4cccnc4[C@H](C)OC)n5CC)CC(C)(C)COC(=O)[C@@H]4CCCN(N4)C3=O)C(C)C)CC2)C1` [Example A564], the half-maximal inhibitory concentration (IC50) at KRAS G12S was in the range of 0.1 to 1 µM; at KRAS WT, 0.1 to 1 µM; at NRAS G12C it was 0.1 to 1 µM; at KRAS G12D, 1 to 10 µM; at NRAS Q61R it was 1 to 10 µM; on K-Ras G13C it was 0.01 to 0.1 µM. The IC50 at KRAS Q61H fell in the range of 0.1 to 1 µM; at KRAS G13D it was 1 to 10 µM; on K-Ras G12C, 0.1 to 1 µM; on NRAS Q61K it was 1 to 10 µM.

Regarding `CCn1c(-c2cccnc2[C@H](C)OC)c2c3cc(ccc31)-c1cccc(c1)CC(NC(=O)[C@H](C(C)C)N1CC[C@]3(CCN(C(=O)C#C[C@@H]4COCCN4C4COC4)C3)C1=O)C(=O)N1CCC[C@H](N1)C(=O)OCC(C)(C)C2` (stereo partly drawn) [Example A565], the half-maximal inhibitory concentration (IC50) at KRAS G12S is 1 to 10 µM; on KRAS WT, greater than 10 µM; at NRAS G12C it was 0.1 to 1 µM; at KRAS G12D it was greater than 10 µM; at NRAS Q61R, greater than 10 µM; on K-Ras G13C it was 1 to 10 µM. Moreover, the IC50 at KRAS Q61H was 1 to 10 µM; at KRAS G13D, greater than 10 µM; at K-Ras G12C, 0.1 to 1 µM; at NRAS Q61K, greater than 10 µM.

For the compound `C=CC(=O)N1CC[C@H](C(=O)N(C)[C@H](C(=O)N[C@H]2Cc3cccc(c3)-c3ccc4c(c3)c(c(-c3cccnc3[C@H](C)OC)n4CC)CC(C)(C)COC(=O)[C@@H]3CCCN(N3)C2=O)C(C)C(F)(F)F)C1` (stereo partly drawn) [Example A641], the IC50 on KRAS G12S was 1 to 10 µM; at KRAS WT, 1 to 10 µM; on NRAS G12C, 0.1 to 1 µM; at KRAS G12D, greater than 10 µM; on NRAS Q61R, 1 to 10 µM; on K-Ras G13C it was 1 to 10 µM. In addition, the IC50 at KRAS Q61H was 1 to 10 µM; at KRAS G13D, 1 to 10 µM; at K-Ras G12C, 0.1 to 1 µM; on NRAS Q61K, 1 to 10 µM.

Regarding `CCn1c(-c2cccnc2[C@H](C)OC)c2c3cc(ccc31)C1CCCN(C1)C[C@H](NC(=O)[C@@H](COC1CN(C(=O)C#CC(C)(C)N(C)C)C1)C(C)C)C(=O)N1CCC[C@H](N1)C(=O)OCC(C)(C)C2` [Example A646, (2R)-2-(((1-(4-(dimethylamino)-4-methylpent-2-ynoyl)azetidin-3-yl)oxy)methyl)-N-((6^3S,4S)-1^1-ethyl-1^2-(2-((S)-1-methoxyethyl)pyridin-3-yl)-10,10-dimethyl-5,7-dioxo-6^1,6^2,6^3,6^4,6^5,6^6-hexahydro-1^1H-8-oxa-1(5,3)-indola-6(1,3)-pyridazina-2(3,1)-piperidinacycloundecaphane-4-yl)-3-methylbutanamide], the IC50 at KRAS G12S is greater than 10 µM; at KRAS WT, greater than 10 µM; on NRAS G12C, 0.01 to 0.1 µM; at KRAS G12D, greater than 10 µM; at NRAS Q61R, greater than 10 µM; at K-Ras G13C, greater than 10 µM. Further, the 50% inhibitory concentration (IC50) was greater than 10 µM on KRAS Q61H, greater than 10 µM on KRAS G13D, 0.01 to 0.1 µM on K-Ras G12C and greater than 10 µM at NRAS Q61K.

On to `C=CC(=O)C1CC[C@H](C(=O)N(C)[C@H](C(=O)N[C@H]2Cc3nsc(n3)-c3ccc4c(c3)c(c(-c3cccnc3[C@H](C)OC)n4CC)CC(C)(C)COC(=O)[C@@H]3CCCN(N3)C2=O)C(C)C)C1` (stereo partly drawn) [Example A694], for which the IC50 is 1 to 10 µM at KRAS G12S; 1 to 10 µM on KRAS WT; 0.1 to 1 µM at NRAS G12C; 1 to 10 µM on KRAS G12D; 1 to 10 µM at NRAS Q61R; 0.1 to 1 µM at K-Ras G13C. Besides, the IC50 on KRAS Q61H fell in the range of 0.1 to 1 µM; at KRAS G13D, 1 to 10 µM; at K-Ras G12C, 0.1 to 1 µM; on NRAS Q61K it was 0.1 to 1 µM.
